Reference: patent US10626107B2, “Crystal form, salt type of substituted 2-hydro-pyrazole derivative and preparation method therefor” (CHIA TAI TIANQING PHARMACEUTICAL GROUP CO., LTD., priority 2016, dated 2020)

Columns and labels:
[1] = Study on the polymorphs of compound WX_1 (XRPD after treatment in solvents); format: physicochemical
Excerpt: The solution was centrifuged to obtain a precipitate, which was dried and then subjected to an XRPD detection.

[2] = Solubility tests in different vehicles (HPLC); format: physicochemical; settings: 26 °C, thermodynamic from solid, room temperature 25 to 27° C.
Procedure: Samples (about 2 mg) (if the sample was a salt, the required amount of the salt was calculated according to the salt factor in accordance with the criterion that the compound of formula (I) was 2 mg) were weighed respectively and added to a 1.5 mL glass vial. Different vehicles (1 mL) were then added respectively. The above-mentioned suspension was placed on a magnetic stirrer for stirring (room temperature 25 to 27° C.). After stirring for 24 hours, samples were taken. The samples were first centrifuged, and the supernatants were taken. After appropriate dilution according to the situation of the dissolution, the concentrations were determined by HPLC. The results were as follows:
Notes: • FaSSIF: to simulate the intestinal fluid in the small intestine of human in a hunger state before meal; • FeSSIF: to simulate the intestinal fluid in the small intestine of human in a full state after meal; • SGF: to simulate the gastric juice in the empty stomach of human in a hunger state

[3] = Solubility study at different pHs; format: physicochemical; settings: 37° C.; for solubility at 4 h / solubility at 24 h: thermodynamic from solid; for Solubility 4 hrs / Solubility (24 hrs): LOQ = 0.0003 mg/mL
Procedure: A magnet was added to the above suspension, which was placed on a magnetic stirrer for stirring (temperature 37° C., dark). After respectively stirring for 4 hours and 24 hours, samples were taken and centrifuged, and the residual solids in the lower layers were tested by XRPD. The samples in the upper layers were filtered with a filtration membrane. The concentrations of the filtrates were determined by HPLC and the pHs were measured. After the HPLC system was equilibrated with a mobile phase, the analysis of the samples started.

[4] = test system: MCF-7 breast cancer cells; assay: Inhibition assay of the A crystal form of WX_1 on MCF-7 breast cancer cell proliferation (CellTiter-Glo); format: cell-based; settings: Homo sapiens, MCF7, 144 h; MCF-7 cells, 6 days
Procedure: RPMI 1640 medium, fetal bovine serum and penicillin/streptomycin as antibiotics were purchased from Promega (Madison, Wis.). The MCF-7 cell line was purchased from the European Collection of Authenticated Cell Cultures (ECACC). Envision MultiLabel Plate Reader (PerkinElmer).
MCF-7 cells were seeded in a black 384-well plate with 45 μL of cell suspension (containing 200 MCF-7 cells) per well. The cell plate was placed in a carbon dioxide incubator for overnight culture.
The test compounds were diluted 3 times to the 10th concentration with Bravo, i.e., diluted from 10 μM to 0.508 nM, and a duplicate-well experiment was set. The medium was added to the middle plate in an amount of 49 μL per well. The gradient-diluted compounds were transferred in an amount of 1 μL per well to the middle plate according to the corresponding positions, and the mixture was mixed evenly and transferred to the cell plate in an amount of 5 μL per well. The cell plate was incubated in a carbon dioxide incubator for 6 days.
Promega CellTiter-Glo reagent was added to the cell plate in an amount of […] per well, and incubated for 10 minutes at room temperature to stabilize the luminescence signal. Reading was performed using a PerkinElmer Envision Multilabel Plate Reader.

[5] = test system: human breast cancer MCF-7 subcutaneous xenograft tumor; format: in vivo; settings: 18.75 mg/kg PO QD × 3W
Excerpt: Cell line-derived xenograft (CDX) BALB/c nude mice that were female, 6- to 8-week old, weighed 20 g, and subcutaneously implanted with human tumor cell line derived from MCF-7 breast cancer patients were used. A total of 150 mice were needed, which were purchased from Beijing Vital River Laboratory Animal Technology Co., Ltd.
BALB/c nude mice that were female, 6- to 8-week old, and weighed approximately 20 g were used. The mice were maintained in separate ventilated cages (10 mice per cage) in a special pathogen-free environment. All the cages, bedding and water were disinfected prior to use. All the animals were free to access a standard certified commercial laboratory diet. A total of 150 mice were purchased from Beijing Vital River Laboratory Animal Technology Co., Ltd. for research. Each mouse was implanted subcutaneously with an estrogen tablets (0.18 mg/tablet, 60-day sustained release) in the left back. After 3 days, each mouse was implanted with tumor cells (10×10^6 in 0.2 mL of phosphate buffer) subcutaneously in the right back for tumor growth. Administration was started when the average tumor volume reached about 150 to 200 mm^3. The test compounds were orally administered daily, and the administration dosages were as shown in the above table. The tumor volumes were measured twice a week using a two-dimensional caliper. The volumes were expressed in cubic millimeters and calculated by the following formula: V=0.5 a×b^2, wherein a and b were the long diameter and short diameter of a tumor, respectively. The anti-tumor efficacy was determined by dividing the average increase of the tumor volumes of the animals treated with a compound by the average increase of the tumor volumes of the animals without being treated with the compound.

[6] = aqueous buffer, pH 3.8 buffer (pH 3.80)
[7] = aqueous buffer, pH 4.5 buffer (pH 4.48)
[8] = aqueous buffer, pH 5.5 buffer (pH 5.52)
[9] = aqueous buffer, pH 6.0 buffer (pH 6.04)
[10] = simulated gastric fluid, 0.01N HCl (pH 1.99)
[11] = simulated gastric fluid, 0.1N HCl (pH 1.00)

CC(C)c1c2cc(-c3nc(Nc4ccc(N5CCNCC5)cn4)ncc3F)ccc2nn1C.O=C(O)/C=C\C(=O)O [A crystal form of compound WX_1]
Crystal form ([1]; acetone, 40° C. in the dark for 2 days): A crystal form | Crystal form ([1]; acetone-water (1:2), Volatilization of supernatant): amorphous (Volatilization) | Crystal form ([1]; ethanol, 40° C. in the dark for 2 days): A crystal form | Crystal form ([1]; ethanol-water (3:1), Volatilization of supernatant): amorphous (Volatilization) | Crystal form ([1]; ethyl acetate, 40° C. in the dark for 2 days): A crystal form | Crystal form ([1]; isopropanol, 40° C. in the dark for 2 days): A crystal form | Crystal form ([1]; isopropanol-water (1:1), Volatilization of supernatant): A crystal form | Crystal form ([1]; methanol, 40° C. in the dark for 2 days): A crystal form | Crystal form ([1]; methanol-water (3:1), 40° C. in the dark for 2 days): A crystal form | solubility at 24 h ([2]; simulated gastric fluid, SGF, read-out: Solubility SGF): > 2000 µg/mL | solubility at 24 h ([2]; FaSSIF, read-out: Solubility FaSSIF): 23 µg/mL | solubility at 24 h ([2]; FeSSIF, read-out: Solubility FeSSIF): 1600 µg/mL | solubility at 24 h ([2]; water, water, H2O, read-out: Solubility H2O): 1140 µg/mL | Description of Solubility ([3]; 0.01N HCl (pH 1.99)): slightly soluble | Description of Solubility ([3]; 0.1N HCl (pH 1.00)): slightly soluble | solubility at 4 h [3, 6]: > 2500 µg/mL | solubility at 24 h [3, 6]: > 2500 µg/mL | solubility at 4 h [3, 7]: > 2500 µg/mL | solubility at 24 h [3, 7]: > 2500 µg/mL | solubility at 4 h [3, 8]: 110 µg/mL | solubility at 24 h [3, 8]: 138 µg/mL | solubility at 4 h [3, 9]: 2 µg/mL | solubility at 24 h [3, 9]: 2 µg/mL | Description of Solubility ([3]; pH 3.8 buffer (pH 3.80)): slightly soluble | Description of Solubility ([3]; pH 4.5 buffer (pH 4.48)): slightly soluble | Description of Solubility ([3]; pH 5.5 buffer (pH 5.52)): sparingly soluble | Description of Solubility ([3]; pH 6.0 buffer (pH 6.04)): practically insoluble | Description of Solubility ([3]; pH 6.8 buffer (pH 6.80)): practically insoluble | Solubility 4 hrs ([3]; pH 6.8 buffer (pH 6.80)): <LOQ* | Solubility (24 hrs) ([3]; pH 6.8 buffer (pH 6.80)): <LOQ | Description of Solubility ([3]; pH 7.4 buffer (pH 7.39)): practically insoluble | Solubility 4 hrs ([3]; pH 7.4 buffer (pH 7.39)): <LOQ | Solubility (24 hrs) ([3]; pH 7.4 buffer (pH 7.39)): <LOQ | Description of Solubility ([3]; purified water (pH 6.05)): slightly soluble | solubility at 4 h [3, 10]: > 2500 µg/mL | solubility at 24 h [3, 10]: > 2500 µg/mL | solubility at 4 h [3, 11]: > 2500 µg/mL | solubility at 24 h [3, 11]: > 2500 µg/mL | solubility at 4 h ([3]; purified water (pH 6.05)): 1110 µg/mL | solubility at 24 h ([3]; purified water (pH 6.05)): 1220 µg/mL | IC50 [4]: 70 nM | Tumor volume Day 0 ([5]; Day 0): 153 mm^3 | Tumor volume Day 7 ([5]; Day 7): 156 mm^3 | Tumor volume Day 14 ([5]; Day 14): 136 mm^3 | Tumor volume Day 20 ([5]; Day 20): 98 mm^3
